Activity calls are given as the source filed them. The rule behind the calls is not given here.
What was measured:
LS180 [1] = assay: (§1) Activation of PXR/LXR in human LS180 cells assessed as induction of P-gp by measuring intracellular accumulation of Rhodamine-123 at 10 uM preincubated for 48 hrs followed by 40 mins incubation with HANKS buffer and subsequent addition of Rhodamine-123 measured after 90 mins by fluorescence assay relative to control; assay type: cell-based
[2] = Cytotoxicity against human SH-SY5Y cells assessed as effect on cell viability at 50 uM measured after 24 hrs by MTT assay relative to control; assay type: toxicity, cell-based; conditions: read-out: Activity
LS180 [3] = assay: as §1, with “measuring decrease in” for “measuring”, “0.3” for “10”, “assay” for “assay relative to control”; assay type: cell-based
[4] = Cytotoxicity against human LS180 cells assessed as effect on cell viability at 50 uM measured after 24 hrs by MTT assay relative to control; assay type: toxicity, cell-based; conditions: read-out: Activity
[5] = Neuroprotective activity in human SH-SY5Y cells assessed as decrease in amyloid beta-induced cytotoxicity measured as cell viability at 5 uM pretreated for 30 mins prior amyloid beta-challenge measured after 48 hrs by MTT assay (reference value: 68%); assay type: functional
LS180 [6] = assay: as §1, with “measured as” for “by measuring”, “5” for “10”, “analysis” for “assay”; assay type: cell-based
[7] = Therapeutic index, ratio of effective concentration for cytotoxicity in human LS180 cells to effective concentration for activation of PXR/LXR in human LS180 cells assessed as induction of P-gp; assay type: cell-based; conditions: read-out: TI
[8] = Therapeutic index, ratio of effective concentration for cytotoxicity in human SH-SY5Y cells to effective concentration for activation of PXR/LXR in human LS180 cells assessed as induction of P-gp; assay type: cell-based; conditions: read-out: TI
LS180 [9] = assay: Activation of PXR/LXR in human LS180 cells assessed as induction of P-gp at 5 uM measured after 24 hrs by Western blot analysis; assay type: cell-based
[10] = Cytotoxicity against human SH-SY5Y cells assessed as effect on cell viability measured after 24 hrs by MTT assay; assay type: toxicity, cell-based
[11] = Cytotoxicity against human LS180 cells assessed as effect on cell viability measured after 24 hrs by MTT assay; assay type: toxicity, cell-based

| Structure (SMILES) | Activity (LS180 [1]) [%] | viability at 24 h, 50 µM [2] [%] | Activity (LS180 [3]) | viability at 24 h, 50 µM [4] [%] | Activity [5] [%] | Activity (LS180 [6]) [%] | selectivity ratio [7] | selectivity ratio [8] | Activity (LS180 [9]) | IC50 at 24 h [10] [µM] | IC50 at 24 h [11] [µM] |
| --- | --- | --- | --- | --- | --- | --- | --- | --- | --- | --- | --- |
| CO[C@H]1/C=C/O[C@@]2(C)Oc3c(C)c(O)c4c(O)c(c(/C=N/N5CCN(C)CC5)c(O)c4c3C2=O)NC(=O)/C(C)=C\C=C\[C@H](C)[C@H](O)[C@@H](C)[C@@H](O)[C@@H](C)[C@H](OC(C)=O)[C@@H]1C | 66.9 | – | – | – | – | – | – | – | – | – | – |
| O=S(=O)(c1ccccc1)N(Cc1cn(-c2c(F)cccc2F)nn1)c1ccc(C(O)(C(F)(F)F)C(F)(F)F)cc1 | – | 125 | Active | 74.5 | 75 | 65.1 | 10 | 10 | – | – | – |
| CC(=O)c1ccc(N(Cc2cn(-c3ccc(C(F)(F)F)cc3)nn2)S(=O)(=O)c2ccccc2)cc1 | – | 108 | Active | 76.7 | 79 | 48.4 | > 166 | > 166 | Active | > 50 | > 50 |
